Like-named read-outs stand apart in the source and are kept apart here. Marks after values point to notes of the source that are not given here.
Tests used:
SK-N-FI = experiment: cells; assay type: cell-based, human; conditions: Table 1C; for folds of resistance (IC50 ratio vs parent cell line): SK-N-FI vs SK-N-As; for IC50: SRB, 72 h, read-out: IC50
Protocol: (§1) The drug-resistant cell lines were continuously cultured in the presence of the selecting agent, AD, DX, VBL or VM to maintain the drug resistant phenotypes. […] All cells were cultured in RPMI 1640-10% FBS at 37° C. 5% CO2 (see below).
(§2) The cytotoxicity of the drug toward the monolayer cell cultures (such as DC-3F, MCF-7, SK-N-As and sublines) was determined in 96-well microtiter plates by the SRB method as described by Skehan and co-workers (Skehan, P., et al., J. Natl. Cancer Inst. 1990, 82, 1107-1112) for measuring the cellular protein content. Cultures were fixed with trichloroacetic acid and then stained for 30 min with 0.4% suforhodamine B dissolved in 1% acetic acid. Unbound dye was removed by acetic acid washes, and the protein-bound dye was extracted with an unbuffered Tris base (tris(hydroxy-methyl)aminomethane) for determination of absorbance at 570 nm in a 96-well microtiter plate reader. The experiments were carried out in duplicate. Each run entailed six to seven concentrations of the tested drugs. Data were analyzed with the median-effect plot (Chou, T.-C. & Talalay, P. T. (1984) Adv. Enzyme Regul. 22, 27-55) using a previously described computer program (Chou, J., & Chou T.-C. 1987, Dose-effect analysis with microcomputers: Quantitation of ED50, synergism, antagonism, low-dose risk, reception-ligand binding and enzyme kinetics, IBM-PC software and manual, Biosoft, Cambridge, U.K.).

P388/Adr = experiment: cells; assay type: cell-based, murine; conditions: Table 1C; for folds of resistance (IC50 ratio vs parent cell line): P388/Adr vs P388/O; for IC50: XTT, 72 h, read-out: IC50
Protocol: as §1
(§3) The cells were cultured at an initial density of 5×10^4 cells/mL. They were maintained in a 5% CO2-humidified atmosphere at 37° C. in RPMI-1640 medium (GIBCO-BRL, Gaithersburg, Md.) containing penicillin (100 U/mL), streptomycin ([…]) (GIBCO-BRL) and 10% heat inactivate fetal bovine serum. Culture for cell suspension (such as for CCRF-CEM, P388 and sublines), were performed by the XTT-microculture tetrazonium method (Scudiero, D. A. et al., Cancer Res. 1988, 48, 4827-4833) in duplicate in 96-well microtiter plates.
(§4) 2′,3′-Bis(methoxy-4-nitro-5-sufophenyl)-5-[(phenylamino)carbonyl]2H-tetrazolium hyudroxide (XTT) was prepared at 1 mg/mL in prewarmed (37° C.) medium without serum. Phenazine methosulfate (PMS) and fresh XTT were mixed together to obtain 0.025 mM PMS-XTT solution (25 μL of the stock 5 mM PMS was added per 5 mL of 1 mg/mL XTT). Following a 72 h incubation, 50 μL of the assay aliquots were added to each well of the cell culture. After incubation at 37° C. for 4 h, absorbance at 450 nm and 630 nm was measured with a microplate reader (EL340, Bio-Tek Instruments, Inc., Winooski, Vt.).

MCF-7 = experiment: SRB cytotoxicity, MCF-7; assay type: cell-based, human; conditions: Table 1C; SRB, 72 h; read-out: IC50
Protocol: as §2

murine leukemic P388/0 = experiment: XTT cytotoxicity, P388/0; assay type: cell-based; conditions: Table 1C; XTT, 72 h; read-out: IC50
Protocol: (§5) The DC-3F hamster lung fibroblast cell line and its actinomycin D-selected sublines (DC-3F/ADII and DC-3F/ADX) were obtained from the Memorial Sloan-Kettering Cancer Center (MSKCC).
as §1, §3, §4

[1] = tested on: human neuroblastoma SK-N-As; experiment: SRB cytotoxicity, SK-N-As; assay type: cell-based; conditions: Table 1C; SRB, 72 h; read-out: IC50
Protocol: as §5, §1, §2

[2] = tested on: CCRF-CEM human T-cell acute lymphoblastic leukemia cell line; experiment: XTT cytotoxicity (cell growth inhibition), CCRF-CEM
Outline: (§6)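 Suspension leukemic cells (CCRF-CEM, P388 and drug-resistant sublines kept under the selecting agent) were seeded at 5×10^4 cells/mL in RPMI-1640 with 10% FBS at 37 °C. After 72 h drug exposure in duplicate, PMS-XTT was added for 4 h. Absorbance was read at 450 and 630 nm.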

CCRF-CEM/Taxol® = experiment: cells; assay type: cell-based, human; conditions: for IC50: XTT, 72 h, read-out: IC50
Outline: as §6

CCRF-CEM/VM1 = experiment: cells; assay type: cell-based, human; conditions: for (D)/(A) IC50 ratio: CCRF-CEM/VM1 vs CCRF-CEM
Outline: as §6

CCRF-CEM/VBL100 = experiment: cells; assay type: cell-based, human; conditions: for (B)/(A) IC50 ratio: CCRF-CEM/VBL100 vs CCRF-CEM
Outline: as §6

MCF-7/Adr = experiment: cells; assay type: cell-based, human; conditions: Table 1C; for folds of resistance (IC50 ratio vs parent cell line): MCF-7/Adr vs MCF-7; for IC50: SRB, 72 h, read-out: IC50
Protocol: Cultures were fixed with trichloroacetic acid and then stained for 30 min with 0.4% suforhodamine B dissolved in 1% acetic acid. Unbound dye was removed by acetic acid washes, and the protein-bound dye was extracted with an unbuffered Tris base (tris(hydroxy-methyl)aminomethane) for determination of absorbance at 570 nm in a 96-well microtiter plate reader. The experiments were carried out in duplicate. Each run entailed six to seven concentrations of the tested drugs.

DC-3F/ADII = experiment: SRB cytotoxicity, DC-3F/ADII; assay type: cell-based, hamster; conditions: Table 3; read-out: IC50
Protocol: as §5, §1, §2
(§7) Concerning Table 3, experiments were carried out using the cell lines DC-3F (parent hamster lung cells), DC-3F/ADII (moderate multidrug-resistant (MDR) cells) and DC-3F/ADX (very strong MDR cells).

DC-3F/ADX = experiment: cells; assay type: cell-based, hamster; conditions: for folds of resistance (IC50 ratio vs parent cell line): DC-3F/ADX vs DC-3F; for IC50: read-out: IC50
Protocol: as §5, §1, §2, §7

[3] = tested on: DC-3F hamster lung fibroblast cell line; experiment: SRB cytotoxicity, DC-3F; assay type: cell-based; conditions: read-out: IC50
Protocol: as §5, §1, §2

[4] = read-out: IC50 (A), Table 2A, parent cell line
[5] = Table 1A, XTT, 72 h, read-out: IC50
[6] = Table 2A, Topo II gene mutated cell line, read-out: IC50 (C)
[7] = Table 6, single determinations, read-out: IC50
[8] = Table 2A, MDR cell line, read-out: IC50 (B)
[9] = Table 7, CEM/VBL, read-out: IC50

SMILES | folds of resistance (IC50 ratio vs parent cell line) (SK-N-FI) | IC50 (SK-N-FI) [nM] | folds of resistance (IC50 ratio vs parent cell line) (P388/Adr) | IC50 (P388/Adr) [nM] | IC50 (MCF-7) [nM] | IC50 (murine leukemic P388/0) [nM] | IC50 [1] [nM] | IC50 [2] [nM] | IC50 ([2]; Table 1, XTT) [nM] | IC50 ([2]; Table 7, CEM) [nM] | IC50 [2, 4] [nM] | IC50 (CCRF-CEM/Taxol®; Table 1A) [nM] | IC50 (CCRF-CEM/VM1; Table 1, XTT, read-out: IC50) [nM] | (D)/(A) IC50 ratio (CCRF-CEM/VM1; Table 1A) | IC50 (CCRF-CEM/VM1; [5]) [nM] | IC50 (CCRF-CEM/VM1; [6]) [nM] | IC50 (CCRF-CEM/VBL100; Table 1, XTT, read-out: IC50) [nM] | (B)/(A) IC50 ratio (CCRF-CEM/VBL100; Table 1A) | IC50 (CCRF-CEM/VBL100; [5]) [nM] | IC50 (CCRF-CEM/VBL100; [8]) [nM] | also measured
C/C(=C\c1csc(C)n1)[C@@H]1C/C=C\CCC[C@H](C)[C@H](O)[C@@H](C)C(=O)C(C)(C)[C@@H](O)CC(=O)O1 [Desoxyepothilone A, desoxyepothilone A] | (3.1x) | 223 | (0.59x) | 12.5 | 32 | 21.3 | 73 | 22 | 22 | 22 | 22 | 15 | 13 | 0.59 | 13 | 13 | 12 | 0.55 | 12 | 12 | IC50 ([2]; Table 1A, XTT, 72 h): 22 nM; IC50 ([2]; Table 2): 2 nM; IC50 ([2]; Table 6, single determinations): 22 nM; (C)/(A) IC50 ratio (CCRF-CEM/Taxol®; Table 1A, CCRF-CEM/Taxol vs CCRF-CEM): 0.7; IC50 (CCRF-CEM/VM1; Table 2, CCR-CEM/VM-1, read-out: IC50): 13 nM; (C)/(A) ratio (fold resistance >1, collateral sensitivity <1) (CCRF-CEM/VM1; Table 2A): (0.59)^b; IC50 (CCRF-CEM/VM1; [7]): 13 nM; IC50 (CCRF-CEM/VBL100; Table 2, CCRF-CEM/VLB, read-out: IC50): 12 nM; (B)/(A) ratio (fold resistance >1, collateral sensitivity <1) (CCRF-CEM/VBL100; Table 2A): (0.55)^b; IC50 (CCRF-CEM/VBL100; [7]): 12 nM; IC50 (CCRF-CEM/VBL100; [9]): 12 nM; IC50 (CCRF-CEM/VBL100; read-out: IC50): 12 nM; folds of resistance (IC50 ratio vs parent cell line) (MCF-7/Adr): (4.5x); IC50 (MCF-7/Adr): 144 nM; IC50 (DC-3F/ADII): 19.8 nM; folds of resistance (IC50 ratio vs parent cell line) (DC-3F/ADX; Table 1C): (3.9x); IC50 (DC-3F/ADX; Table 1C, SRB, 72 h): 42 nM; IC50 (DC-3F/ADX; Table 3): 42 nM; IC50 ([3]; Table 1C, SRB, 72 h): 11 nM; IC50 ([3]; Table 3): 10.6 nM
C/C(=C\c1csc(C)n1)[C@@H]1C[C@@H]2O[C@@H]2CCC[C@H](C)[C@H](O)[C@@H](C)C(=O)C(C)(C)[C@@H](O)CC(=O)O1 [Epothilone A, epothilone A] | (1.9x)# | 23 | (5.3x)# | 1 | 3 | 1.8 | 12 | 2.7 | 3 | 2.9 | 3.2 | 3.7 | 3 | 2.3 | 6.1 | 3.4 | 20 | 7.4 | 20 | 24 | (C)/(A) IC50 ratio (CCRF-CEM/Taxol®): 1.4; (C)/(A) ratio (fold resistance >1, collateral sensitivity <1) (CCRF-CEM/VM1): (1.06)^a; (B)/(A) ratio (fold resistance >1, collateral sensitivity <1) (CCRF-CEM/VBL100): (7.5)^a; fold resistance (cross-resistance) vs parent CCRF-CEM (CCRF-CEM/VBL100; CCRF-CEM/VBL100 MDR cells): 8 fold; IC50 (CCRF-CEM/VBL100; [9]): 20.3 nM; IC50 (CCRF-CEM/VBL100; read-out: IC50): 20 nM; folds of resistance (IC50 ratio vs parent cell line) (MCF-7/Adr): (3.1x)#; IC50 (MCF-7/Adr): 9.4 nM; folds of resistance (IC50 ratio vs parent cell line) (DC-3F/ADX; Table 1C): (14.5x)#; IC50 (DC-3F/ADX; Table 1C, SRB, 72 h): 53 nM; IC50 (DC-3F/ADX; relative potency ordering): 60 nM; IC50 ([3]; Table 1C, SRB, 72 h): 3.7 nM; IC50 ([3]; relative potency ordering): 3.6 nM
